Molecular target: T1, GCase (Homo sapiens, UniProt P04062)
T1 construct: endogenous in cells; host or cells: HeLa cells
T1 sequence (P04062 40-536): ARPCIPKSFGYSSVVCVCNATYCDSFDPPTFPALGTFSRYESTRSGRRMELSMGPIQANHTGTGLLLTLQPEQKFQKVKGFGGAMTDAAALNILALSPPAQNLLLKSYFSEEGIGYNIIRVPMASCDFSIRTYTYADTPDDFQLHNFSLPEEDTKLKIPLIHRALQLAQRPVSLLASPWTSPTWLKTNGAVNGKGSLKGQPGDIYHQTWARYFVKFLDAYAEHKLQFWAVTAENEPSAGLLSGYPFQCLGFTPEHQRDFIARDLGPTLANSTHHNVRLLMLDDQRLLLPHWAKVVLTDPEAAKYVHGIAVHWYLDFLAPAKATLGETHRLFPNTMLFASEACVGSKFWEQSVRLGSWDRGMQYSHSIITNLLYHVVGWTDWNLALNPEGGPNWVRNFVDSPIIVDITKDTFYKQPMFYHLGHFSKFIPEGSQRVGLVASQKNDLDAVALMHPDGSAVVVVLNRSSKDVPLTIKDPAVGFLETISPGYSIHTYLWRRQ
Test: live cell PFB assay in HELA cells for activation of GCase
Type: cell-based
Procedure: Exemplary compounds were evaluated for activation of GCase in a live cell PFB assay in HELA cells (essentially as described in Ysselstein et al., “LRRK2 kinase activity regulates lysosomal glucocerebrosidase in neurons derived from Parkinson's disease patients” Nature Communications (2019) 10:5570). […] EC50 ranges: A: <10 μM; B: >10-50 μM; C: >50-100 μM; D: >100 μM.

EC50 | Structure (SMILES)
< 10 µM | FC(F)Cn1ncc2ncc(N[C@@H]3C[C@@H]4CN(c5cccnc5C(F)(F)F)C[C@@H]4C3)nc21 [Compound 36, (3aR,5S,6aS)—N-[1-(2,2-difluoroethyl)-1H-pyrazolo[3,4-b]pyrazin-6-yl]-2-[2-(trifluoromethyl)pyridin-3-yl]-octahydrocyclopenta[c]pyrrol-5-amine]
< 10 µM | FC(F)Cn1ncc2ncc(N[C@H]3C[C@@H]4CN(c5cccnc5C(F)(F)F)C[C@@H]4C3)nc21 [Compound 37, (3aR,5R,6aS)—N-[1-(2,2-difluoroethyl)-1H-pyrazolo[3,4-b]pyrazin-6-yl]-2-[2-(trifluoromethyl)pyridin-3-yl]-octahydrocyclopenta[c]pyrrol-5-amine]
< 10 µM | FC(F)Cn1ncc2ncc(N[C@@H]3C[C@@H]4CN(c5ncccc5C(F)(F)F)C[C@@H]4C3)nc21 [Compound 38, (3aR,5S,6aS)—N-[1-(2,2-difluoroethyl)-1H-pyrazolo[3,4-b]pyrazin-6-yl]-2-[3-(trifluoromethyl)pyridin-2-yl]-octahydrocyclopenta[c]pyrrol-5-amine]
< 10 µM | FC(F)Cn1ncc2ncc(N[C@@H]3C[C@@H]4CN(c5ccc(C(F)(F)F)nc5)C[C@@H]4C3)nc21 [Compound 39, (3aR,5S,6aS)—N-[1-(2,2-difluoroethyl)-1H-pyrazolo[3,4-b]pyrazin-6-yl]-2-[6-(trifluoromethyl)pyridin-3-yl]-octahydrocyclopenta[c]pyrrol-5-amine]
10 to 50 µM | FC(F)Cn1ncc2ncc(N[C@H]3C[C@@H]4CN(c5ccc(C(F)(F)F)cn5)C[C@@H]4C3)nc21 [Compound 40, (3aR,5S,6aS)—N-[1-(2,2-difluoroethyl)-1H-pyrazolo[3,4-b]pyrazin-6-yl]-2-[5-(trifluoromethyl)pyridin-2-yl]-octahydrocyclopenta[c]pyrrol-5-amine]
> 100 µM | FC(F)Cn1ncc2ncc(NC3C[C@@H]4CN(c5ncccc5C(F)(F)F)C[C@@H]4C3)nc21 (stereo partly drawn) [Compound 41, (3aR,5S,6aS)—N-[1-(2,2-difluoroethyl)-1H-pyrazolo[3,4-b]pyrazin-6-yl]-2-[3-(trifluoromethyl)pyridin-2-yl]-octahydrocyclopenta[c]pyrrol-5-amine]
10 to 50 µM | FC(F)Cn1ncc2ncc(N[C@H]3C[C@@H]4CN(c5ccc(C(F)(F)F)nc5)C[C@@H]4C3)nc21 [Compound 42, (3aR,5S,6aS)—N-[1-(2,2-difluoroethyl)-1H-pyrazolo[3,4-b]pyrazin-6-yl]-2-[6-(trifluoromethyl)pyridin-3-yl]-octahydrocyclopenta[c]pyrrol-5-amine]
< 10 µM | FC(F)Cn1ncc2ncc(N3C[C@H]4CN(c5cc(C(F)(F)F)ccn5)C[C@H]4C3)nc21 [Compound 43, rac-2-[(3aR,6aS)-5-[1-(2,2-difluoroethyl)-1H-pyrazolo[3,4-b]pyrazin-6-yl]-octahydropyrrolo[3,4-c]pyrrol-2-yl]-4-(trifluoromethyl)pyridine]
> 100 µM | FC(F)Cn1ncc2ncc(N3C[C@H]4CN(c5cccc(C(F)(F)F)n5)C[C@H]4C3)nc21 [Compound 45, rac-2-[(3aR,6aS)-5-[1-(2,2-difluoroethyl)-1H-pyrazolo[3,4-b]pyrazin-6-yl]-octahydropyrrolo[3,4-c]pyrrol-2-yl]-6-(trifluoromethyl)pyridine]
10 to 50 µM | FC(F)Cn1ncc2ncc(N3C[C@H]4CN(c5ccc(C(F)(F)F)nc5)C[C@H]4C3)nc21 [Compound 47, rac-5-[(3aR,6aS)-5-[1-(2,2-difluoroethyl)-1H-pyrazolo[3,4-b]pyrazin-6-yl]-octahydropyrrolo[3,4-c]pyrrol-2-yl]-2-(trifluoromethyl)pyridine]
10 to 50 µM | FC(F)Cn1ncc2ncc(N3C[C@@H]4CN(c5cccnc5C(F)(F)F)C[C@@H]4C3)nc21 [Compound 49, rac-3-[(3aR,6aS)-5-[1-(2,2-difluoroethyl)-1H-pyrazolo[3,4-b]pyrazin-6-yl]-octahydropyrrolo[3,4-c]pyrrol-2-yl]-2-(trifluoromethyl)pyridine]
